The source of these data is BindingDB's records for doi:10.7270/Q2JM282R (University of Pittsburgh, 2008).

The target of this experiment is RAC-alpha serine/threonine-protein kinase (Homo sapiens, UniProt P31749). In words: AKT1 kinase inhibition by PKD hits, dose response, selectivity assay for PKD inhibitor project, biochemical, 57K library, IC50 (AID 1378).

Bounds are passed on as bounds.

Sequence of RAC-alpha serine/threonine-protein kinase (P31749 whole entry): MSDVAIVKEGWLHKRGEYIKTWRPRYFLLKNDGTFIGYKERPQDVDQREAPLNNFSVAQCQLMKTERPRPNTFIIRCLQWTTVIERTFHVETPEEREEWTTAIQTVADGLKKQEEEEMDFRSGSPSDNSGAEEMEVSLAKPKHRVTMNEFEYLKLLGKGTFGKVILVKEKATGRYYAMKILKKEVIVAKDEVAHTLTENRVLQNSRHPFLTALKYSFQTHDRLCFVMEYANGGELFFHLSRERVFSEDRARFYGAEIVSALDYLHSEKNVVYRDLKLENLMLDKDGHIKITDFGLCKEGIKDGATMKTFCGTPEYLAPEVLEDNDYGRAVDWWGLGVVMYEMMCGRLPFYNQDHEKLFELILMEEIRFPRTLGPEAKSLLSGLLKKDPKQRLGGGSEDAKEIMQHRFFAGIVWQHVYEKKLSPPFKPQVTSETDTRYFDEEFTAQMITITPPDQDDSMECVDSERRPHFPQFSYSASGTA

Regarding `COC(=O)c1c(NC(=O)C2C3CCC(C3)C2C(=O)O)sc2c1CCCCC2` (stereo not drawn) [SMR000298221], the IC50 was above 100 µM.

On to `CC(N=Nc1ncc(Cl)cc1Cl)c1ccccn1` (stereo not drawn) [3,5-dichloro-N-(1-pyridin-2-ylethylideneamino)pyridin-2-amine], for which the IC50 was above 100 µM. In the case of `Cc1c(C#N)c(N)nc(Cl)c1C#N` [2-amino-6-chloro-4-methyl-3,5-pyridinedicarbonitrile], the 50% inhibitory concentration (IC50) is above 100 µM. The figure for `O=C(Nc1ccccc1C(=O)N1CCCC1)C1COc2ccccc2O1` (stereo not drawn) [SMR000287780] is above 100 µM; for `O=C(O)c1cc(C(=O)C2CCCCC2)c[nH]1` [4-(cyclohexylcarbonyl)-1H-pyrrole-2-carboxylic acid] it is above 100 µM. The result for `CCOC(=O)c1sc(=NC(=O)CCS(=O)(=O)c2ccccc2)n(C)c1C` [2-[3-(benzenesulfonyl)-1-oxopropyl]imino-3,4-dimethyl-5-thiazolecarboxylic acid ethyl ester] reads above 100 µM; that for `Cn1cccc1C(=O)NC(=O)COC(=O)c1cc(S(=O)(=O)N2CCCCC2)ccc1Cl` [[2-[(1-methylpyrrol-2-yl)carbonylamino]-2-oxidanylidene-ethyl] 2-chloranyl-5-piperidin-1-ylsulfonyl-benzoate], above 100 µM.

Turning to `CSc1ccccc1C(=O)NCc1ccc(F)cc1`, the IC50 is above 100 µM. Compound `CC1Cc2ccccc2N1c1ncnc(N)c1[N+](=O)[O-]` (stereo not drawn) [6-(2-methyl-2,3-dihydro-1H-indol-1-yl)-5-nitro-4-pyrimidinamine] registered an IC50 above 100 µM. The figure for `CCCc1cc(=O)[nH]c(SCCCCN2C(=O)c3ccccc3C2=O)n1` [2-[4-[(4-oxidanylidene-6-propyl-1H-pyrimidin-2-yl)sulfanyl]butyl]isoindole-1,3-dione] is above 100 µM. The result for `O=[N+]([O-])c1ccc(Nc2c3ccccc3nc3ccccc23)cc1` [MLS000723809] reads above 100 µM. In the case of `COc1ccc(CNC(=O)C2Cc3ccccc3CN2C(=O)c2ccco2)cc1` (stereo not drawn) [SMR000343177], the IC50 was above 100 µM.

In turn, `Cc1cc(NC(=O)CCC(=O)N(Cc2ccco2)C(C(=O)NCC2CCCO2)c2ccncc2)no1` (stereo not drawn) [N'-(furan-2-ylmethyl)-N-(5-methyl-1,2-oxazol-3-yl)-N'-[2-oxidanylidene-2-(oxolan-2-ylmethylamino)-1-pyridin-4-yl-ethyl]butanediamide] returned an IC50 above 100 µM. The figure for `O=C1CSCN1c1cc(Cl)ccc1Cl` [3-(2,5-dichlorophenyl)-1,3-thiazolan-4-one] is above 100 µM.

For `O=C(CSc1ccc2nnc(-c3cccnc3)n2n1)c1ccccc1` [1-phenyl-2-[[3-(3-pyridinyl)-[1,2,4]triazolo[4,3-b]pyridazin-6-yl]thio]ethanone], the IC50 is above 100 µM. The result for `O=C(CSc1ccncc1)Nc1ccc2ccccc2c1` [N-naphthalen-2-yl-2-pyridin-4-ylsulfanylacetamide] reads above 100 µM; that for `COc1ccc(Cn2c(=O)[nH]c3cc(C(=O)NC4CCCC4)ccc3c2=O)cc1` [MLS000730065], above 100 µM; that for `O=C(NNC1=Nc2cccc3cccc1c23)c1ccc(Br)cc1` [SMR000260645], above 100 µM.

What is called IC50 is the point on the concentration scale where inhibition reaches its midpoint. Higher therefore signals a need for much substance.
